Data as given in patent US20230310441A1, “TREATMENT FOR SCHIZOPHRENIA” (TAKEDA PHARMACEUTICAL COMPANY, priority 2020, published 2023).
Entries after “also recorded” stand apart in the source; their conditions may differ. Read-outs that look alike come from different tables or passages of the source.

Tests used:
[1] = Phase 1 FIH study: plasma pharmacokinetics in healthy participants; assay type: in vivo, human; conditions: for Tmax / Cmax / AUC(0-t) / AUC / Vd/F: human, plasma; for Vd/F: read-out: Vz/F (mean)
Protocol: Part 1 was a double-blind, SRD study in healthy adults, utilizing an alternate panel design (cohorts 1, 2) and sequential panel design (cohorts 3-5). Cohorts 1 and 2 were part of a two-period, alternating-panel, double-blind study of Compound (I) administered as an oral suspension (5 mg, 10 mg, 20 mg, or 40 mg) or matched placebo, with a washout period of at least 7 days between treatment periods. Cohorts 3-5 were part of a sequential-panel, double-blind study to evaluate the SRDs of Compound (I) (80, 120, or 160 mg, respectively) or matched placebo. Although planned, all subsequent doses after the dose of 80 mg were determined based on emerging safety, tolerability, and PK data from the preceding cohorts.
In Part 2, participants received either placebo on all dosing days or a loading dose of Compound (I) on Day 1 and a maintenance dose of half the initial dose on Days 8, 15 and 22, administered as an oral suspension. Baseline measurements were obtained on Day −2, and study-specific measurements were obtained following oral dose administrations on Days 1, 8, 15, and 22.
Part 3 was a randomized, open-label, single-dose, parallel design study to evaluate the bioavailability of a Compound (I) tablet formulation relative to a Compound (I) oral suspension formulation and the effect of food on the PK in healthy participants. The immediate release tablet contained mannitol, microcrystalline cellulose, and other commonly used excipients. Participants were randomized 1:1 to receive a single 40 mg dose of Compound (I) as a tablet after either 10 h overnight fast, or 30 min after beginning ingestion of a high-fat, high-calorie breakfast.
Participants were required to remain in the study unit for an additional 48 h post-dose for safety and PK assessments with follow-up visits on Day 4-5 and on Day 17-21. Blood samples were collected over 96 h post-dose to measure the plasma concentrations of Compound (I).
Plasma and urine concentrations of Compound (I) and urine concentrations of cortisol and 6β-hydroxycortisol were measured by high performance liquid chromatography with tandem mass spectrometry. One 4 mL blood sample was collected per scheduled assessment. For participants receiving placebo, blood samples were analyzed only at pre-dose and around the time Cmax occurred (as emerging from the measurements of the first dose group) to ensure that no additional participants could have been on active treatment. Serial urine samples were collected for Part 1 cohorts 1-5 and Part 2 cohorts 1-4. Urine samples for participants receiving placebo were not analyzed. Urine samples were collected for the determination of cortisol and 6β-hydroxycortisol for Part 2 cohorts 1-4 and for all patients in Part 4. Samples for participants randomized to placebo were analyzed for these parameters.
Pharmacokinetic parameters were determined from the concentration-time profiles for all evaluable participants. Actual sampling times were used in all computations. pharmacokinetic parameters were calculated using non-compartmental analysis using Phoenix WinNonLin v8.0 or SAS v 9.4.

[2] = Phase 2 crossover study: safety in subjects with stable schizophrenia; assay type: in vivo, human
Description: The safety analysis set consisted of all subjects who were enrolled and received at least 1 dose of study drug. Safety measurements included adverse events, physical examinations, vital signs, clinical laboratory evaluations, ECGs, and C-SSRS.

[3] = Separate single dose oral study: half-life in rats; conditions: rat, in vivo; single dose oral administration of 5-15 mg/kg
Description: (§1) The mean t1/2z for Compound (I) reflects the prolonged half-life of Compound (I) in humans. […] In that study, the mean human half-life of Compound (I) (approximately 11 days) was substantially higher than the 2-4 hr mean half-life observed in rats and dogs.

[4] = Separate single dose oral study: half-life in humans; conditions: human, in vivo; single dose oral administration
Description: as §1

[5] = Part 3, single oral 40 mg tablet
[6] = healthy, oral, 40/20 mg, Day 22, N 6
[7] = healthy, oral, 80/40 mg, Day 22, N 6
[8] = healthy, oral, 120/60 mg, Day 22, N 6
[9] = healthy, oral, 160/80 mg, Day 22, N 6
[10] = po, healthy, oral, 40/20 mg, Day 22, N 6
[11] = po, healthy, oral, 80/40 mg, Day 22, N 6
[12] = po, healthy, oral, 120/60 mg, Day 22, N 6
[13] = po, healthy, oral, 160/80 mg, Day 22, N 6

C[C@H](NC(=O)Cn1nnc2ccccc2c1=O)c1ccc(OC(F)(F)F)cc1 [Compound (I), (S)-2-(4-oxobenzo[d][1,2,3]triazin-3(4H)-yl)-N-(1-(4-(trifluoromethoxy)phenyl)ethyl)acetamide]
mean t1/2z ([1]; Part 1 SRD, 20-160 mg dose range): 210 to 296 h | mean t1/2z at steady state ([1]; Part 2 MRD): 170 to 302 h | dose proportionality of systemic exposure at steady state ([1]; Part 2 MRD, Day 22): increased approximately dose proportionally | ratio for AUC96, tablet under fasted and fed conditions [1, 5]: ~0.942 | ratio for Cmax, tablet under fasted and fed conditions [1, 5]: approximately 0.841 | food effect on systemic exposure ([1]; Part 3, tablet, fasted vs high-fat, high-calorie meal): no meaningful food effect on systemic exposure; also recorded: minimal food effect | steady-state mean t1/2z ([1]; healthy participants (comparison for Part 4)): 271 h | CL/F (mean) [1, 6]: 334.6 mL/h | Cav,ss (mean) [1, 6]: 393.8 ng/mL | Ctrough (mean) [1, 6]: 274.2 ng/mL | t1/2z (mean) [1, 6]: 299.5 h | CL/F (mean) [1, 7]: 281.9 mL/h | Cav,ss (mean) [1, 7]: 889.3 ng/mL | Ctrough (mean) [1, 7]: 621.3 ng/mL | t1/2z (mean) [1, 7]: 301.7 h | CL/F (mean) [1, 8]: 299.1 mL/h | Cav,ss (mean) [1, 8]: 1206.6 ng/mL | Ctrough (mean) [1, 8]: 862.5 ng/mL | t1/2z (mean) [1, 8]: 169.7 h | CL/F (mean) [1, 9]: 284.6 mL/h | Cav,ss (mean) [1, 9]: 1751.1 ng/mL | Ctrough (mean) [1, 9]: 1209.0 ng/mL | t1/2z (mean) [1, 9]: 270.8 h | saturation of plasma PK ([1]; highest dose level tested): Saturation of plasma PK was observed at 160 mg | Tmax ([1]; oral, 40 mg, Part 3, tablet formulation, fasted and fed states, read-out: median tmax): 2 h | Tmax ([1]; oral, 120 mg, Part 1 SRD, 120 mg (secondary peak in some participants), read-out: median tmax): 13 h | Tmax ([1]; oral, 160 mg, Part 1 SRD, 160 mg (secondary peak in some participants), read-out: median tmax): 13.5 h | Tmax ([1]; oral, Part 1 SRD, dose range 5-80 mg, read-out: median tmax): 0.99 to 3 h | Cmax ([1]; oral, Part 2 MRD, 40/20 mg, up to 168 h post-dose, read-out: Mean Cmax (SD)): 550 ng/mL | Cmax ([1]; oral, Part 2 MRD, 80/40 mg, up to 168 h post-dose, read-out: Mean Cmax (SD)): 880 ng/mL | Cmax ([1]; oral, Part 2 MRD, 120/60 mg, up to 168 h post-dose, read-out: Mean Cmax (SD)): 1260 ng/mL | Cmax ([1]; oral, Part 2 MRD, 160/80 mg, up to 168 h post-dose, read-out: Mean Cmax (SD)): 1760 ng/mL | Tmax ([1]; oral, Part 2 MRD, read-out: median tmax): 1.75 to 3 h | Tmax ([1]; oral, healthy participants (comparison for Part 4), read-out: median tmax): 3 h | Cmax ([1]; po, 5 mg, Part 1 SRD, Cohort 1, 5 mg oral suspension, fasted, up to 96 h post-dose, read-out: Mean Cmax (SD)): 140 ng/mL | Cmax ([1]; po, 10 mg, Part 1 SRD, Cohort 2, 10 mg oral suspension, fasted, up to 96 h post-dose, read-out: Mean Cmax (SD)): 193 ng/mL | Cmax ([1]; po, 80 mg, Part 1 SRD, Cohort 3, 80 mg oral suspension, fasted, up to 168 h post-dose, read-out: Mean Cmax (SD)): 910 ng/mL | Cmax ([1]; po, 120 mg, Part 1 SRD, Cohort 4, 120 mg oral suspension, fasted, up to 168 h post-dose, read-out: Mean Cmax (SD)): 1200 ng/mL | Cmax ([1]; po, 160 mg, Part 1 SRD, Cohort 5, 160 mg oral suspension, fasted, up to 168 h post-dose, read-out: Mean Cmax (SD)): 1120 ng/mL | AUC(0-t) [1, 10]: 191 µg·h/mL | AUC ([1]; po, healthy, oral, 40/20 mg, Day 22, N 6, read-out: AUC24 (mean)): 12 µg·h/mL | AUC ([1]; po, healthy, oral, 40/20 mg, Day 22, N 6, read-out: AUC96 (mean)): 42.2 µg·h/mL | AUC ([1]; po, healthy, oral, 40/20 mg, Day 22, N 6, read-out: AUCτ (mean)): 66.2 µg·h/mL | Cmax ([1]; po, healthy, oral, 40/20 mg, Day 22, N 6, read-out: Cmax (mean)): 698 ng/mL | Vd/F [1, 10]: 112 L | Tmax ([1]; po, healthy, oral, 40/20 mg, Day 22, N 6, read-out: tmax (median)): 1.75 h | AUC(0-t) [1, 11]: 421 µg·h/mL | AUC ([1]; po, healthy, oral, 80/40 mg, Day 22, N 6, read-out: AUC24 (mean)): 24.4 µg·h/mL | AUC ([1]; po, healthy, oral, 80/40 mg, Day 22, N 6, read-out: AUC96 (mean)): 92.7 µg·h/mL | AUC ([1]; po, healthy, oral, 80/40 mg, Day 22, N 6, read-out: AUCτ (mean)): 149 µg·h/mL | Cmax ([1]; po, healthy, oral, 80/40 mg, Day 22, N 6, read-out: Cmax (mean)): 1250 ng/mL | Vd/F [1, 11]: 123 L | Tmax ([1]; po, healthy, oral, 80/40 mg, Day 22, N 6, read-out: tmax (median)): 2 h | AUC(0-t) [1, 12]: 407 µg·h/mL | AUC ([1]; po, healthy, oral, 120/60 mg, Day 22, N 6, read-out: AUC24 (mean)): 35.9 µg·h/mL | AUC ([1]; po, healthy, oral, 120/60 mg, Day 22, N 6, read-out: AUC96 (mean)): 134 µg·h/mL | AUC ([1]; po, healthy, oral, 120/60 mg, Day 22, N 6, read-out: AUCτ (mean)): 203 µg·h/mL | Cmax ([1]; po, healthy, oral, 120/60 mg, Day 22, N 6, read-out: Cmax (mean)): 1740 ng/mL | Vd/F [1, 12]: 73 L | Tmax ([1]; po, healthy, oral, 120/60 mg, Day 22, N 6, read-out: tmax (median)): 3 h | AUC(0-t) [1, 13]: 841 µg·h/mL | AUC ([1]; po, healthy, oral, 160/80 mg, Day 22, N 6, read-out: AUC24 (mean)): 47.4 µg·h/mL | AUC ([1]; po, healthy, oral, 160/80 mg, Day 22, N 6, read-out: AUC96 (mean)): 181 µg·h/mL | AUC ([1]; po, healthy, oral, 160/80 mg, Day 22, N 6, read-out: AUCτ (mean)): 294 µg·h/mL | Cmax ([1]; po, healthy, oral, 160/80 mg, Day 22, N 6, read-out: Cmax (mean)): 2410 ng/mL | Vd/F [1, 13]: 103 L | Tmax ([1]; po, healthy, oral, 160/80 mg, Day 22, N 6, read-out: tmax (median)): 3 h | Tmax ([1]; po, oral suspension (comparison for Part 3), read-out: median tmax): 1.82 h | Tmax ([1]; po, single and repeated oral administration, healthy and schizophrenia patients, read-out: tmax): 0.99 to 3 h | absorption ([1]; single and repeated oral administration, healthy volunteers and patients with stable schizophrenia): rapidly absorbed | dose proportionality of Cmax and AUC ([1]; single oral doses 5-160 mg, healthy): increased less than dose proportionally | deaths or serious adverse events ([2]; phase 2): no deaths or serious adverse events | discontinuation of study medication due to TEAEs ([2]; phase 2): No subjects discontinued study medication due to TEAEs | safety and tolerability ([2]; phase 2, single doses 40 or 160 mg, add-on to antipsychotics): safe and well-tolerated | half-life [3]: 2 to 4 h | half-life [4]: ~264 h
